Experiments:
[1] = tested on: MEG-01S human megakaryocytes; experiment: A23187-inducible PGD2 production in PMA-differentiated MEG-01S (EIA); assay type: cell-based; details: 0-100 µM, 30 min before 5 µM A23187 (Figure 3A)
Procedure: (§1) All bone marrow-derived macrophages (BMM) were obtained by culturing bone marrow cells from the femurs of 6 to 8 week old C57BL/6 male mice in RPMI 1640 medium (Invitrogen Life Technologies, Carlsbad, CA, USA) supplemented with 10 % Fetal calf serum (Invitrogen) 20 U/ml penicillin and 20 µg/ml streptomycin (Invitrogen), 2 mM L-glutamine (Glutamax-1, Invitrogen) in the presence of 10^4 U/ml (100 ng/mL) recombinant human CSF-1 (a gift from Chiron, Emeryville, CA) on bacteriological plastic plates for 7 days. The human megakaryocytic cell line MEG-01S was obtained from the American Type Culture Collection. MEG-01S were maintained in the same media as for BMM, supplemented with 1 mM Sodium Pyruvate (Invitrogen).
BMM were seeded overnight at 2 x 10^5 cells/ml in 24 well plates before treatment with compound at either 10 µM or 0.1 - 100 µM for 24 h in the presence or absence of lipopolysaccharide (LPS) from Salmonella Minnesota (Sigma-Aldrich) at a final concentration of 10 ng/ml. […] Supernatants were collected and samples were analysed for PGD2 using Prostaglandin D2 Mox Express EIA kits, PGE2 using Prostaglandin E2 Express EIA kits, the prostacyclin derivative 6-keto PGF1α using the 6-keto Prostaglandin F1α EIA Kit and the Thromboxane A2 derivative TXB2 using the Thromboxane B2 Express EIA kit (Cayman Chemical) according to the manufacturer's instructions. […]

[2] = tested on: mouse primary bone marrow-derived macrophages (BMM); experiment: PGD2 production in LPS-activated BMM (EIA); assay type: cell-based
Procedure: The human megakaryocytic cell line MEG-01S was obtained from the American Type Culture Collection. MEG-01S were maintained in the same media as for BMM, supplemented with 1 mM Sodium Pyruvate (Invitrogen).
BMM were seeded overnight at 2 x 10^5 cells/ml in 24 well plates before treatment with compound at either 10 µM or 0.1 - 100 µM for 24 h in the presence or absence of lipopolysaccharide (LPS) from Salmonella Minnesota (Sigma-Aldrich) at a final concentration of 10 ng/ml. MEG-01S were seeded at 2 x 10^5 cells/ml and stimulated with PMA (Phorbol 12-myristate 13-acetate) (Sigma-Aldrich) at a final concentration of 0.1 µM for 16 h.
The compound was tested with 10 µM of compound and LPS (10 ng/ml) for 24 h. […] (Student's t test).

[3] = tested on: MEG-01S; experiment: MEG-01S cell viability by MTT assay; assay type: cell-based, human; details: 24 h treatment, 0-100 µM (Figure 3B)
Procedure: as §1
Known inhibitors 1 and 2, along with compound 3, were used to treat BMM at three doses (10, 30, 100 µM) in the presence of LPS for 24 h and cell viability was measured by MTT assay. BMM were seeded at 1 x 10^5 cells/well in 96 well plates and treated for 24 h with LPS (10 ng/ml) and compounds at 10, 30 and 100 µM. […] Cell viability was measured by MTT (Sigma-Aldrich) assay as described previously (Irvine, FASEB J, 2006).
The effect of the compounds on MEG-01S cell viability was measured by MTT assay after 24 h treatment across the concentration range 0 - 100 µM of compounds (Figure 3B). […]

EC50 fold better than that estimated for 1 ([2]; BMM PGD2 production, compound 3 versus compound 1): ~30 fold | EC50 ([2]; Mus musculus, Macrophage, BMM, LPS 10 ng/ml, 24 h, 0-100 µM compound, read-out: EC50 estimated for inhibition of PGD2 production): ~0.29 µM
Structure (SMILES): NC(=O)[C@H](Cc1ccccc1)NC(=O)c1ccc(-c2cccs2)nc1 [Compound 3, N-(1-amino-1-oxo-3-phenylpropan-2-yl)-6-(thiophen-2-yl)-nicotinamide]
A23187-inducible PGD2 production [1]: inhibited A23187-inducible PGD2 production from PMA-differentiated MEG-01S human megakaryocytes dose-dependently | inhibition of PGD2 production ([2]; BMM, LPS, 24 h, 0-100 µM (Figure 2A)): inhibited PGD2 production in the sub-micromolar range dose-dependently | PGD2 levels ([2]; BMM, LPS, 24 h, at 1 µM): significantly inhibiting | MEG-01S cell viability [3]: little effect

Source: patent publication EP2576536B1, “HAEMATOPOIETIC-PROSTAGLANDIN D2 SYNTHASE INHIBITORS” (priority 2010, dated 2011)
